Laboratory results from article PMC6914780 (2019).

Assays:
[1] = test system: U6C U39Ap SAM-VI (RNA, riboswitch, 2-aminopurine at U39 (paper numbering)) GGCAUCGUGCCUCGAAAGGGGCGAUAAGUCCUGAAAAGGGAUGUC; assay: stopped-flow 2-aminopurine fluorescence; conditions: K+ 100 mM, Mg2+ 2 mM; 50 mM KMOPS pH 7.5, 20 °C; association rate constant
[2] = test system: metK 61 (U39Ap) (RNA, riboswitch, 2-aminopurine at U39 (paper numbering)) GCAAACGAAAACGUAUCAUUGUGCCUCGCUGGGGAGCGGGGCGAUAAGUCCGAAAGAGGGA; assay: 2-aminopurine fluorescence; conditions: K+ 100 mM, Mg2+ 2 mM; 50 mM KMOPS pH 7.5, 20 °C; 0.5 µM RNA, 15 µM SAM; no fluorescence change
[3] = test system: SAM-VI U6C (RNA, riboswitch) GGCAUCGUGCCUCGCAUUGCACUCCGCGGGGCGAUAAGUCCUGAAAAGGGAUGUC; assay: ITC; conditions: K+ 50 mM, Mg2+ 10 mM; 40 mM HEPES pH 7.0, 20 °C
[4] = test system: SAM-VI A34C (RNA, riboswitch) GGCAUUGUGCCUCGCAUUGCACUCCGCGGGGCGCUAAGUCCUGAAAAGGGAUGUC; assay: ITC; conditions: K+ 50 mM, Mg2+ 10 mM; 40 mM HEPES pH 7.0, 20 °C; N.D.; 0.5-1 mM ligand in syringe
[5] = test system: SAM-VI A34G (RNA, riboswitch) GGCAUUGUGCCUCGCAUUGCACUCCGCGGGGCGGUAAGUCCUGAAAAGGGAUGUC; assay: ITC; conditions: K+ 50 mM, Mg2+ 10 mM; 40 mM HEPES pH 7.0, 20 °C; N.D.; 0.5-1 mM ligand in syringe
[6] = test system: SAM-VI A36C (RNA, riboswitch) GGCAUUGUGCCUCGCAUUGCACUCCGCGGGGCGAUCAGUCCUGAAAAGGGAUGUC; assay: ITC; conditions: K+ 50 mM, Mg2+ 10 mM; 40 mM HEPES pH 7.0, 20 °C; N.D.; 0.5-1 mM ligand in syringe
[7] = test system: SAM-VI A37C (RNA, riboswitch) GGCAUUGUGCCUCGCAUUGCACUCCGCGGGGCGAUACGUCCUGAAAAGGGAUGUC; assay: ITC; conditions: K+ 50 mM, Mg2+ 10 mM; 40 mM HEPES pH 7.0, 20 °C; N.D.; 0.5-1 mM ligand in syringe
[8] = test system: SAM-VI U8A (RNA, riboswitch) GGCAUUGAGCCUCGCAUUGCACUCCGCGGGGCGAUAAGUCCUGAAAAGGGAUGUC; assay: ITC; conditions: K+ 50 mM, Mg2+ 10 mM; 40 mM HEPES pH 7.0, 20 °C; N.D.; 0.5-1 mM ligand in syringe
[9] = test system: wt U39Ap SAM-VI (GAAA tetraloop) (RNA, riboswitch, 2-aminopurine at U39 (paper numbering)) GGCAUUGUGCCUCGAAAGGGGCGAUAAGUCCUGAAAAGGGAUGUC; assay: stopped-flow 2-aminopurine fluorescence; conditions: K+ 100 mM, Mg2+ 2 mM; 50 mM KMOPS pH 7.5, 20 °C; association rate constant
[10] = test system: SAM-VI G33A (RNA, riboswitch) GGCAUUGUGCCUCGCAUUGCACUCCGCGGGGCAAUAAGUCCUGAAAAGGGAUGUC; assay: ITC; conditions: K+ 50 mM, Mg2+ 10 mM; 40 mM HEPES pH 7.0, 20 °C; N.D.; 0.5-1 mM ligand in syringe
[11] = test system: SAM-VI U8G (RNA, riboswitch) GGCAUUGGGCCUCGCAUUGCACUCCGCGGGGCGAUAAGUCCUGAAAAGGGAUGUC; assay: ITC; conditions: K+ 50 mM, Mg2+ 10 mM; 40 mM HEPES pH 7.0, 20 °C; N.D.; 0.5-1 mM ligand in syringe
[12] = test system: SAM-VI G38C (RNA, riboswitch) GGCAUUGUGCCUCGCAUUGCACUCCGCGGGGCGAUAACUCCUGAAAAGGGAUGUC; assay: ITC; conditions: K+ 50 mM, Mg2+ 10 mM; 40 mM HEPES pH 7.0, 20 °C; N.D.; 0.5-1 mM ligand in syringe
[13] = test system: wt U39Ap SAM-VI (GAAA tetraloop) (RNA, riboswitch, 2-aminopurine at U39 (paper numbering)) GGCAUUGUGCCUCGAAAGGGGCGAUAAGUCCUGAAAAGGGAUGUC; assay: 2-aminopurine fluorescence titration; conditions: K+ 100 mM, Mg2+ 2 mM; 50 mM KMOPS pH 7.5, 20 °C; apparent
[14] = test system: U6C U39Ap SAM-VI (RNA, riboswitch, 2-aminopurine at U39 (paper numbering)) GGCAUCGUGCCUCGAAAGGGGCGAUAAGUCCUGAAAAGGGAUGUC; assay: 2-aminopurine fluorescence titration; conditions: K+ 100 mM, Mg2+ 2 mM; 50 mM KMOPS pH 7.5, 20 °C; apparent
[15] = test system: SAM-VI A36G/A37G/G38A (RNA, riboswitch) GGCAUUGUGCCUCGCAUUGCACUCCGCGGGGCGAUGGAUCCUGAAAAGGGAUGUC; assay: ITC; conditions: K+ 50 mM, Mg2+ 10 mM; 40 mM HEPES pH 7.0, 20 °C; N.D.; 0.5-1 mM ligand in syringe
[16] = test system: metK 65 (U39Ap) (RNA, riboswitch, 2-aminopurine at U39 (paper numbering)) GCAAACGAAAACGUAUCAUUGUGCCUCGCUGGGGAGCGGGGCGAUAAGUCCGAAAGAGGGAUGAU; assay: 2-aminopurine fluorescence; conditions: K+ 100 mM, Mg2+ 2 mM; 50 mM KMOPS pH 7.5, 20 °C; 0.5 µM RNA, 15 µM SAM; >3-fold fluorescence increase
[17] = test system: SAM-VI U8C (RNA, riboswitch) GGCAUUGCGCCUCGCAUUGCACUCCGCGGGGCGAUAAGUCCUGAAAAGGGAUGUC; assay: ITC; conditions: K+ 50 mM, Mg2+ 10 mM; 40 mM HEPES pH 7.0, 20 °C; N.D.; 0.5-1 mM ligand in syringe
[18] = test system: SAM-VI G7C (RNA, riboswitch) GGCAUUCUGCCUCGCAUUGCACUCCGCGGGGCGAUAAGUCCUGAAAAGGGAUGUC; assay: ITC; conditions: K+ 50 mM, Mg2+ 10 mM; 40 mM HEPES pH 7.0, 20 °C; N.D.; 0.5-1 mM ligand in syringe
[19] = test system: SAM-VI WT (B. angulatum 59 metK, U1A loop, crystallization/ITC construct) (RNA, riboswitch) GGCAUUGUGCCUCGCAUUGCACUCCGCGGGGCGAUAAGUCCUGAAAAGGGAUGUC; assay: ITC; conditions: K+ 50 mM, Mg2+ 10 mM; 40 mM HEPES pH 7.0, 20 °C

Row | kon [1] | binding [2] | Kd [3] [nM] | binding [4] | binding [5] | binding [6] | binding [7] | binding [8] | kon [9] | binding [10] | binding [11] | binding [12] | Kd [13] [nM] | Kd [14] [nM] | binding [15] | binding [16] | binding [17] | binding [18] | Kd [19] [nM] | SMILES
1 | 62,550 ± 1900 M^-1 s^-1 | no | 460 ± 20 | no | no | no | no | no | 24,580 ± 689 M^-1 s^-1 | no | no | no | 2040 ± 110 | 2310 ± 60 | no | yes | no | no | 330 ± 60 | C[S+](CC[C@H](N)C(=O)O)C[C@H]1O[C@@H](n2cnc3c(N)ncnc32)[C@H](O)[C@@H]1O (stereo partly drawn)
2 | 1460 ± 179 M⁻¹ s⁻¹ | – | 2300 ± 100 | – | – | – | – | – | 5500 ± 266 M⁻¹ s⁻¹ | – | – | – | – | – | – | – | – | – | 10900 ± 1300 | Nc1ncnc2c1ncn2[C@@H]1O[C@H](CSCC[C@H](N)C(=O)O)[C@@H](O)[C@H]1O
3 | 4230 ± 462 M⁻¹ s⁻¹ | – | 1700 ± 300 | – | – | – | – | – | 17,240 ± 1140 M^-1 s^-1 | – | – | – | – | – | – | – | – | – | 4400 ± 500 | Nc1ncnc2c1ncn2[C@@H]1O[C@H](CN(CCO)CC[C@H](N)C(=O)O)[C@@H](O)[C@H]1O
